Structures are written as SMILES.

Usually IC50 stands for the midpoint of a concentration-inhibition curve. A lower IC50 goes with greater potency.

The target of this test is T1, Jak3 (Homo sapiens, UniProt P52333).
T1 construct: Jak3 enzyme (aa 811-1103); expressed in SF9 cells as a GST fusion; GST; made in house; host or cells: SF9 insect cells
T1 sequence (P52333 811-1103): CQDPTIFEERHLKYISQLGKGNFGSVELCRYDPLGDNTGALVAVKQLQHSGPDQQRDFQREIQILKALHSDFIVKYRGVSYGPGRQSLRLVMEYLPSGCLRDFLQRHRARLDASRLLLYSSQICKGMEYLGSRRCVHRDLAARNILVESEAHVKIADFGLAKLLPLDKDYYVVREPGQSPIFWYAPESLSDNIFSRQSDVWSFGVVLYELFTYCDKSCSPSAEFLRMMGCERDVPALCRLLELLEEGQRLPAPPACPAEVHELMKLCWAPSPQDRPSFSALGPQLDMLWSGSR
Nature of the test: Jak3 enzyme data for selected compounds. The format is biochemical.
Take `O=C(N1CCC[C@@H](c2cnc3cnc4[nH]ccc4n23)C1)N1CCC[C@@H]1C(F)(F)F` [AA.1.10, (3-(3H-imidazo[1,2-a]pyrrolo[2,3-e]pyrazin-8-yl)piperidin-1-yl)((R)-2-(trifluoromethyl)pyrrolidin-1-yl)methanone]: the IC50 was in the range of 100 to 1000 nM.

Take `CC[C@@H]1C[C@@H](Oc2ccc(C(F)(F)F)cn2)C[C@@H]1c1nnc2cnc3[nH]ccc3n12` (single isomer, unassigned) [AA.1.95, 1-(2-ethyl-4-(5-(trifluoromethyl)pyridin-2-yloxy)cyclopentyl)-6H-pyrrolo[2,3-e][1,2,4]triazolo[4,3-a]pyrazine]: the IC50 was > 1000 nM.

Turning to `O=S(=O)(CCC(F)(F)F)NC[C@H]1CC[C@@H](c2ncc3cnc4[nH]ccc4n23)C1` (single isomer, unassigned) [AA.1.62], the IC50 was 100 to 1000 nM.

`CC[C@@H]1C[C@H](Oc2cnc(C#N)cn2)C[C@H]1c1nnc2cnc3[nH]ccc3n12` (single isomer, unassigned) [AA.1.98, 5-(3-ethyl-4-(6H-pyrrolo[2,3-e][1,2,4]triazolo[4,3-a]pyrazin-1-yl)cyclopentyloxy)pyrazine-2-carbonitrile]: the IC50 is < 100 nM.

Take `O=S(=O)(NC12CCC(c3nnc4cnc5[nH]ccc5n34)(CC1)CC2)N1CC(F)(F)C1` [D.1.30]: the IC50 is 100 to 1000 nM.

Take `CC[C@@H]1C[C@H](Nc2cnc(C#N)cn2)C[C@@H]1c1ncc2cnc3[nH]ccc3n12` [D.2.13]: the concentration for half-maximal inhibition (IC50) was < 100 nM.

As to `O=C(C1CC(F)(F)C1)N1CCC[C@@H](c2ncc3cnc4[nH]ccc4n23)C1` [H.4.1], the IC50 lay within 100 to 1000 nM.

As to `C[C@H]1CCN(C(=O)N2CC[C@@H](C)[C@@H](c3ncc4cnc5[nH]ccc5n34)C2)C1` (racemic) [J.2.10], the IC50 was < 100 nM.

For `CC[C@H]1C[C@H](OCc2cccc(C#N)c2)C[C@H]1c1nnc2cnc3[nH]ccc3n12` (single isomer, unassigned) [AA.1.100, 3-((3-ethyl-4-(6H-pyrrolo[2,3-e][1,2,4]triazolo[4,3-a]pyrazin-1-yl)cyclopentyloxy)methyl)benzonitrile], the IC50 is > 1000 nM.

Take `CC[C@@H]1C[C@H](NS(=O)(=O)CCn2cc(C#N)cn2)C[C@@H]1c1nnc2cnc3[nH]ccc3n12` [YY.1.1, 2-(4-cyano-1H-pyrazol-1-yl)-N-((1S,3R,4S)-3-ethyl-4-(6H-pyrrolo[2,3-e][1,2,4]triazolo[4,3-a]pyrazin-1-yl)cyclopentyl)ethanesulfonamide]: the IC50 was > 1000 nM.

For the compound `C[C@@H]1CCN(c2cnc(C#N)cn2)C[C@@H]1c1ncc2cnc3[nH]ccc3n12` (racemic) [L.1.2], the IC50 is < 100 nM.

`CC[C@@H]1C[C@@H](OCC2CC2)C[C@@H]1c1nnc2cnc3[nH]ccc3n12` (single isomer, unassigned) [AA.1.90, 1-(4-(cyclopropylmethoxy)-2-ethylcyclopentyl)-6H-pyrrolo[2,3-e][1,2,4]triazolo[4,3-a]pyrazine]: the IC50 was in the range of 100 to 1000 nM.

Take `CC[C@@H]1C[C@H](NS(=O)(=O)N2CCC2)C[C@@H]1c1nnc2cnc3[nH]ccc3n12` [D.1.10]: the IC50 lay within 100 to 1000 nM.

`C[C@@H]1CCN(C(=NC#N)N2CCCC2)C[C@@H]1c1ncc2cnc3[nH]ccc3n12` [Example #5, N-(((3R,4R)-3-(6H-imidazo[1,5-a]pyrrolo[2,3-e]pyrazin-1-yl)-4-methylpiperidin-1-yl)(pyrrolidin-1-yl)methylene)cyanamide] registered an IC50 of 100 to 1000 nM.

Compound `O=S(=O)(NC12CCC(c3cnc4cnc5[nH]ccc5n34)(CC1)CC2)C1CC1` [K.3.1] showed an IC50 of 100 to 1000 nM.

Take `CC[C@@H]1C[C@@H](Oc2ccc(C#N)cc2)C[C@@H]1c1nnc2cnc3[nH]ccc3n12` [Example #4, 4-((1R,3R,4S)-3-ethyl-4-(6H-pyrrolo[2,3-e][1,2,4]triazolo[4,3-a]pyrazin-1-yl)cyclopentyloxy)benzonitrile]: the IC50 was < 100 nM.

Take `CC[C@@H]1C[C@H](Nc2ncc(C#N)s2)C[C@@H]1c1nnc2cnc3[nH]ccc3n12` [Example #8, 2-((1S,3R,4S)-3-ethyl-4-(6H-pyrrolo[2,3-e][1,2,4]triazolo[4,3-a]pyrazin-1-yl)cyclopentylamino)thiazole-5-carbonitrile]: the IC50 lay in the range of 100 to 1000 nM.

As to `C[C@@H]1CCN(C(=O)Nc2ccc(C#N)cc2)C[C@@H]1c1ncc2cnc3[nH]ccc3n12` [QQ.1.4], the 50% inhibitory concentration (IC50) was < 100 nM.

Take `CC[C@@H]1C[C@H](Oc2cnc(C#N)cn2)C[C@@H]1c1nnc2cnc3[nH]ccc3n12` (relative stereo) [AA.1.37, 5-(3-ethyl-4-(6H-pyrrolo[2,3-e][1,2,4]triazolo[4,3-a]pyrazin-1-yl)cyclopentyloxy)pyrazine-2-carbonitrile]: the IC50 lay in the range of 100 to 1000 nM.

With `CC[C@H]1C[C@@H](NS(=O)(=O)C2CC2)C[C@H]1c1cnc2cnc3[nH]ccc3n12` (single isomer, unassigned) [AA.1.25, N-(3-ethyl-4-(3H-imidazo[1,2-a]pyrrolo[2,3-e]pyrazin-8-yl)cyclopentyl)cyclopropanesulfonamide], the IC50 was < 100 nM.

In turn, `C[C@H]1C[C@H](Oc2ccc(C#N)cc2)C[C@@H]1c1nnc2cnc3[nH]ccc3n12` (single isomer, unassigned) [AA.1.94, 4-(3-methyl-4-(6H-pyrrolo[2,3-e][1,2,4]triazolo[4,3-a]pyrazin-1-yl)cyclopentyloxy)benzonitrile] displayed an IC50 of 100 to 1000 nM.

`CC[C@@H]1C[C@H](N(C#N)S(=O)(=O)C2CC2)C[C@@H]1c1nnc2cnc3[nH]ccc3n12` [Example #32, N-cyano-N-((1S,3R,4S)-3-ethyl-4-(6H-pyrrolo[2,3-e][1,2,4]triazolo[4,3-a]pyrazin-1-yl)cyclopentyl)cyclopropanesulfonamide] gave an IC50 of 100 to 1000 nM.

Compound `CC[C@H]1C[C@H](NS(=O)(=O)C2CC2)C[C@@H]1c1nnc2cnc3[nH]ccc3n12` (single isomer, unassigned) [AA.1.5] displayed an IC50 of 100 to 1000 nM.

Regarding `CC[C@H]1C[C@@H](COc2cnc(C#N)cn2)C[C@H]1c1nnc2cnc3[nH]ccc3n12` (single isomer, unassigned) [AA.1.42, 5-((cis-3-ethyl-4-(6H-pyrrolo[2,3-e][1,2,4]triazolo[4,3-a]pyrazin-1-yl)cyclopentyl)methoxy)-pyrazine-2-carbonitrile], the IC50 was > 1000 nM.

As for `C[C@@H]1CCN(C(=O)N2CC[C@H](C#N)C2)C[C@@H]1c1ncc2cnc3[nH]ccc3n12` (racemic) [J.2.1], the IC50 is < 100 nM.

In the case of `CC[C@@H]1C[C@H](OCc2ccc(OC)cc2)C[C@H]1c1n[nH]c2cnc3[nH]ccc3c12` (single isomer, unassigned) [compound 31], the concentration for half-maximal inhibition (IC50) lay within 100 to 1000 nM.

Consider `CCCCC1(S(=O)(=O)N[C@H]2C[C@@H](CC)[C@@H](c3nnc4cnc5[nH]ccc5n34)C2)CC1` [D.1.84], for which the IC50 was in the range of 100 to 1000 nM.

In the case of `CC[C@H]1C[C@@H](Oc2cnc(C#N)cn2)C[C@@H]1c1nnc2cnc3[nH]ccc3n12` (single isomer, unassigned) [AA.1.97, 5-(3-ethyl-4-(6H-pyrrolo[2,3-e][1,2,4]triazolo[4,3-a]pyrazin-1-yl)cyclopentyloxy)pyrazine-2-carbonitrile], the half-inhibitory concentration (IC50) is > 1000 nM.

Regarding `C[C@@H]1C[C@H](Nc2cnc(C#N)cn2)C[C@@H]1c1ncc2cnc3[nH]ccc3n12` [D.2.21], the IC50 was in the range of 100 to 1000 nM.

Consider `CC[C@@H]1C[C@H](NS(=O)(=O)C2(CC)CC2)C[C@@H]1c1nnc2cnc3[nH]ccc3n12` [D.1.82], for which the IC50 was 100 to 1000 nM.

With `CC[C@@H]1C[C@H](OCC2CCOCC2)C[C@H]1c1nnc2cnc3[nH]ccc3n12` (single isomer, unassigned) [AA.1.66, 1-(2-ethyl-4-((tetrahydro-2H-pyran-4-yl)methoxy)cyclopentyl)-6H-pyrrolo[2,3-e][1,2,4]triazolo[4,3-a]pyrazine], the IC50 was > 1000 nM.

On to `N#Cc1cnc(N2CCC[C@@H](c3cnc4cnc5[nH]ccc5n34)C2)s1` (single isomer, unassigned) [AA.1.22, 2-(3-(3H-imidazo[1,2-a]pyrrolo[2,3,-e]pyrazin-8-yl)piperidin-1-yl)thiazole-5-carbonitrile], for which the IC50 was < 100 nM.

`CC[C@@H]1C[C@H](NS(=O)(=O)CCn2nccn2)C[C@@H]1c1nnc2cnc3[nH]ccc3n12` [D.1.59] had an IC50 of 100 to 1000 nM.

As for `O=S(=O)(CCC(F)(F)F)N1CC2CC1CN2c1ncc2cnc3[nH]ccc3n12` (centres unmarked) [D.1.63], the IC50 was > 1000 nM.

Consider `N#CC1CCN(C(=O)N2CCC[C@@H](c3ncc4cnc5[nH]ccc5n34)C2)CC1` [J.3.8], for which the IC50 lay within 100 to 1000 nM.

Take `C[C@@H]1CCN(C(=O)N2CCCC2)C[C@@H]1c1ncc2cnc3[nH]ccc3n12` (racemic) [I.2.1]: the IC50 is < 100 nM.

For `CC[C@@H]1C[C@H](NS(=O)(=O)N2CC(F)(F)C2)C[C@@H]1c1nnc2cnc3[nH]ccc3n12` [D.1.11], the IC50 was 100 to 1000 nM.

`CC[C@@H]1C[C@@H](OC2CCOCC2)C[C@@H]1c1nnc2cnc3[nH]ccc3n12` (single isomer, unassigned) [AA.1.91, 1-(2-ethyl-4-(tetrahydro-2H-pyran-4-yloxy)cyclopentyl)-6H-pyrrolo[2,3-e][1,2,4]triazolo[4,3-a]pyrazine] had an IC50 of 100 to 1000 nM.

For the compound `CC[C@@H]1C[C@H](NS(=O)(=O)N2CCN(C)CC2)C[C@@H]1c1nnc2cnc3[nH]ccc3n12` [D.1.50], the IC50 is > 1000 nM.

In turn, `CC[C@@H]1C[C@H](N(C)S(=O)(=O)C2CC2)C[C@@H]1c1nnc2cnc3[nH]ccc3n12` [D.1.21] yielded an IC50 of 100 to 1000 nM.

For the compound `C[C@@H]1CCN(C(=O)N2CCC[C@@H]2C(F)(F)F)C[C@@H]1c1ncc2cnc3[nH]ccc3n12` [J.2.15], the IC50 was < 100 nM.

For the compound `c1cc2c3c(cnc2[nH]1)CCCN3C1CCCCC1` [Example #28, 1-cyclohexyl-2,3,4,7-tetrahydro-1H-pyrrolo[2,3-h][1,6]naphthyridine], the IC50 was > 1000 nM.

`C[C@@H]1C[C@H](Nc2cnc(C#N)cn2)C[C@H]1c1cnc2cnc3[nH]ccc3n12` (single isomer, unassigned) [AA.1.18, 5-(3-(3H-imidazo[1,2-a]pyrrolo[2,3,-e]pyrazin-8-yl)-4-methylcyclopentylamino)pyrazine-2-carbonitrile]: the IC50 is < 100 nM.

Turning to `CC[C@@H]1C[C@@H](Oc2ccc(C#N)cn2)C[C@H]1c1nnc2cnc3[nH]ccc3n12` (racemic) [D.2.10], the IC50 is > 1000 nM.

For the origin of these results see USRE47221E1, “Tricyclic compounds” (AbbVie Inc., priority 2009, dated 2019).
